Laboratory results reported in article PMC5998061 (2018).

Legend:
[1] = tested on: MG RNA aptamer (malachite green RNA aptamer) (RNA, aptamer) GGAUCCCGACUGGCGAGAGCCAGGUAACGAAUGGAUCC; assay: fluorescence titration, Hill fit n = 1; conditions: 100 mM KCl, 1 mM Mg-citrate; 10 mM HEPES, 0.2 M bicine, pH 8.5, room temperature; no vesicles
[2] = tested on: MG aptamer construct for SHAPE (MG aptamer SHAPE construct) (RNA, aptamer) GGGCCUUCGGGCCAAGGAUCCCGACUGGCGAGAGCCAGGUAACGAAUGGAUCCUCGAUCCGGUUCGCCGGAUCCAAAUCGGGCUUCGGUCCGGUUC; assay: SHAPE (NMIA), A30/A31 band ratio, Boltzmann fit; conditions: 100 mM KCl, 1 mM Mg-citrate; bicine pH 8.5; RNA outside empty myristoleic acid vesicles; MG incubation room temperature, NMIA 10 °C; apparent

KD [1]: 2.5 ± 0.4 µM
midpoint [2]: 6.1 ± 0.7 µM
Structure (SMILES): CN(C)c1ccc(C(=C2C=CC(=[N+](C)C)C=C2)c2ccccc2)cc1
